Data from patent publication US10414774B2, “Compound useful for altering the levels of bile acids for the treatment of diabetes and cardiometabolc disease” (Merck Sharp & Dohme Corp., priority 2016, dated 2019).

biological target: T1, Human CYP8B1 (Homo sapiens, UniProt Q9UNU6); assay: Human CYP8B1 Liver Microsome Assay; details: Human CYP8B1 IC50, human liver microsomes; substrate 7a-hydroxy-4-cholesten-3-one, NADPH; RapidFire MS detection of 7α,12α-dihydroxy-4-cholesten-3-one
T1 sequence (Q9UNU6 1-501): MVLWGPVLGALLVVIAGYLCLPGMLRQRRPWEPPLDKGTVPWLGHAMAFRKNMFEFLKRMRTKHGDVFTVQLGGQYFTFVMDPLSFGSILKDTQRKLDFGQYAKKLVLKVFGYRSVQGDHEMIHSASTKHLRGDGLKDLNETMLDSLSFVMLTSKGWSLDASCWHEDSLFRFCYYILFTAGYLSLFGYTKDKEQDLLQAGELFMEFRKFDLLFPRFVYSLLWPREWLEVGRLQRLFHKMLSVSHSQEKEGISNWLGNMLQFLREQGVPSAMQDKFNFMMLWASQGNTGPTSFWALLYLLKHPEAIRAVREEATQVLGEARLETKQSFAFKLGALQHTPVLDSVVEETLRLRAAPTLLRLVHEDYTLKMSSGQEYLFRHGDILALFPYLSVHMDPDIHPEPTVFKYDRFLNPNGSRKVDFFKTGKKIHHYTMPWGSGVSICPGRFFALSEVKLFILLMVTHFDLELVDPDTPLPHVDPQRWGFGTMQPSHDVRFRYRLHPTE

| IC50 | Structure (SMILES) |
| --- | --- |
| 22 nM | CO[C@@H]1CN(c2c(C#N)cnc3ccc(Cl)cc23)CC[C@@H]1C(=O)N1CCn2c(nnc2C(F)(F)F)C1 [Example 72a, 6-chloro-4-[(3S,4S)-3-methoxy-4-{[3-(trifluoromethyl)-5,6-dihydro[1,2,4]triazolo[4,3-a]pyrazin-7(8H)-yl]carbonyl}piperidin-1-yl]quinoline-3-carbonitrile] |
| 1.3 nM | C[C@@H]1CN(c2c(C#N)cnc3c(F)c(F)ccc23)CC[C@@H]1C(=O)N1CCn2c(nnc2C(F)(F)F)C1 [Example 8, 7,8-difluoro-4-[(3S,4S)-3-methyl-4-{[3-(trifluoromethyl)-5,6-dihydro[1,2,4]triazolo[4,3-a]pyrazin-7(8H)-yl]carbonyl}piperidin-1-yl]quinoline-3-carbonitrile] |
| 863 nM | N#Cc1cnc2ccc(Cl)cc2c1N1CCC(C(=O)N2CCn3cc(C(F)(F)F)nc3C2)CC1 [Example 104, 6-chloro-4-(4-{[2-(trifluoromethyl)-5,6-dihydroimidazo[1,2-a]pyrazin-7(8H)-yl]carbonyl}piperidin-1-yl)quinoline-3-carbonitrile] |
| 1.8 nM | COc1ccc2c(N3CC[C@H](C(=O)N4CCn5c(nnc5C(F)(F)F)C4)[C@H](C4CC4)C3)c(C#N)cnc2c1F [Example 77b, 4-[(3S,4S)-3-cyclopropyl-4-{[3-(trifluoromethyl)-5,6-dihydro[1,2,4]triazolo[4,3-a]pyrazin-7(8H)-yl]carbonyl}piperidin-1-yl]-8-fluoro-7-methoxyquinoline-3-carbonitrile] |
| 2.1 nM | N#Cc1cnc2ccc(Cl)cc2c1N1CCC(C(=O)N2CCn3c(nnc3C(F)(F)F)C2)C(C(F)(F)F)C1 (centres unmarked) [Example 118, 6-chloro-4-[3-(trifluoromethyl)-4-{[3-(trifluoromethyl)-5,6-dihydro[1,2,4]triazolo[4,3-a]pyrazin-7(8H)-yl]carbonyl}piperidin-1-yl]quinoline-3-carbonitrile] |
| 1150 nM | Cc1nc2ccc(F)cc2c(N2CCC(C(=O)N3CCn4c(nnc4C(F)(F)F)C3)CC2)c1C#N [Example 45, 6-fluoro-2-methyl-4-(4-(3-(trifluoromethyl)-5,6,7,8-tetrahydro-[1,2,4]triazolo[4,3-a]pyrazine-7-carbonyl)piperidin-1-yl)quinoline-3-carbonitrile] |
| 1290 nM | N#Cc1cnc2ccc(Cl)cc2c1N1CC[C@]2(C(=O)N3CCn4c(nnc4C(F)(F)F)C3)C[C@@H]2C1 (single isomer, unassigned) [Example 81a] |
| 1220 nM | CCc1ncc2n1CCN(C(=O)C1CCN(c3c(C#N)cnc4ccc(Cl)cc34)CC1)C2 [Example 114, 6-chloro-4-{4-[(3-ethyl-5,6-dihydroimidazo[1,5-a]pyrazin-7(8H)-yl)carbonyl]piperidin-1-yl}quinoline-3-carbonitrile] |
| 35 nM | Cc1nc2ccc(Cl)cc2c(N2CC[C@H](C(=O)N3CCc4n[nH]c(C(F)(F)F)c4C3)[C@H](C)C2)c1C#N [Example 92, 6-chloro-2-methyl-4-[(3S,4S)-3-methyl-4-{[3-(trifluoromethyl)-2,4,6,7-tetrahydro-5H-pyrazolo[4,3-c]pyridin-5-yl]carbonyl}piperidin-1-yl]quinoline-3-carbonitrile] |
| 987 nM | COc1ccc2c(N3C[C@@H](C)N(C(=O)N4CCn5c(nnc5C(F)(F)F)C4)[C@@H](C)C3)c(C#N)cnc2c1 [Example 83b, 4-((3S,5R)-3,5-dimethyl-4-(3-(trifluoromethyl)-5,6,7,8-tetrahydro-[1,2,4]triazolo[4,3-a]pyrazine-7-carbonyl)piperazin-1-yl)-7-methoxyquinoline-3-carbonitrile] |
| 2.9 nM | C[C@@H]1CN(c2c(C#N)cnc3ccc(Cl)cc23)CCN1C(=O)N1CCn2c(nnc2C(F)(F)F)C1 [Example 128, 6-chloro-4-[(3R)-3-methyl-4-{[3-(trifluoromethyl)-5,6-dihydro[1,2,4]triazolo[4,3-a]pyrazin-7(8H)-yl]carbonyl}piperazin-1-yl]quinoline-3-carbonitrile] |
| 1.2 nM | CC1CN(c2c(C#N)cnc3ccc(F)cc23)CCC1C(=O)N1CCn2c(nnc2C(F)(F)F)C1 (centres unmarked) [Example 117, 6-fluoro-4-(3-methyl-4-{[3-(trifluoromethyl)-5,6-dihydro[1,2,4]triazolo[4,3-a]pyrazin-7(8H)-yl]carbonyl}piperidin-1-yl)quinoline-3-carbonitrile] |
| 0.7 nM | C[C@@H]1CN(c2c(C#N)cnc3c(F)cc(C(F)F)cc23)CC[C@@H]1C(=O)N1CCn2c(nnc2C(F)(F)F)C1 [Example 88, 6-(difluoromethyl)-8-fluoro-4-((3S,4S)-3-methyl-4-(3-(trifluoromethyl)-5,6,7,8-tetrahydro-[1,2,4]triazolo[4,3-a]pyrazine-7-carbonyl)piperidin-1-yl)quinoline-3-carbonitrile] |
| 2.5 nM | COc1cccc2c(N3CC[C@H](C(=O)N4CCn5c(nnc5C(F)(F)F)C4)[C@H](C)C3)c(C#N)cnc12 [Example 11, 8-methoxy-4-[(3S,4S)-3-methyl-4-{[3-(trifluoromethyl)-5,6-dihydro[1,2,4]triazolo[4,3-a]pyrazin-7(8H)-yl]carbonyl}piperidin-1-yl]quinoline-3-carbonitrile] |
| 78 nM | Cc1nc2ccc(C(F)F)cc2c(N2CCC(C(=O)N3CCn4c(nnc4C(F)(F)F)C3)CC2)c1C#N [Example 55, 6-(difluoromethyl)-2-methyl-4-(4-(3-(trifluoromethyl)-5,6,7,8-tetrahydro-[1,2,4]triazolo[4,3-a]pyrazine-7-carbonyl)piperidin-1-yl)quinoline-3-carbonitrile] |
| 8.6 nM | Cc1nc2ccc(Cl)cc2c(N2CC[C@H](C(=O)N3CCn4nccc4C3)[C@H](C)C2)c1C#N [Example 96, 6-chloro-4-[(3S,4S)-4-(6,7-dihydropyrazolo[1,5-a]pyrazin-5(4H)-ylcarbonyl)-3-methylpiperidin-1-yl]-2-methylquinoline-3-carbonitrile] |
| 18 nM | COC(=O)c1nc2ccc(Cl)cc2c(N2CC[C@H](C(=O)N3CCn4c(nnc4C(F)(F)F)C3)[C@H](C)C2)c1C#N [Example 59, methyl 6-chloro-3-cyano-4-[(3S,4S)-3-methyl-4-{[3-(trifluoromethyl)-5,6-dihydro[1,2,4]triazolo[4,3-a]pyrazin-7(8H)-yl]carbonyl}piperidin-1-yl]quinoline-2-carboxylate] |
| 1.2 nM | CC1CN(c2c(C#N)cnc3ccc(C(F)(F)F)cc23)CCC1C(=O)N1CCn2c(nnc2C(F)(F)F)C1 (centres unmarked) [Example 119, 4-(3-methyl-4-{[3-(trifluoromethyl)-5,6-dihydro[1,2,4]triazolo[4,3-a]pyrazin-7(8H)-yl]carbonyl}piperidin-1-yl)-6-(trifluoromethyl)quinoline-3-carbonitrile] |
| 1.1 nM | C[C@@H]1CN(c2c(C#N)cnc3c(F)cccc23)CC[C@@H]1C(=O)N1CCn2c(nnc2C(F)(F)F)C1 [Example 12, 8-fluoro-4-[(3S,4S)-3-methyl-4-{[3-(trifluoromethyl)-5,6-dihydro[1,2,4]triazolo[4,3-a]pyrazin-7(8H)-yl]carbonyl}piperidin-1-yl]quinoline-3-carbonitrile] |

same assay, conditions: read-out: Human CYP8B1 IC50; human liver microsomes; substrate 7a-hydroxy-4-cholesten-3-one, NADPH; RapidFire MS detection of 7α,12α-dihydroxy-4-cholesten-3-one

| IC50 | Structure (SMILES) |
| --- | --- |
| 41.4 nM | C[C@@H]1CN(c2c(C#N)cnc3ccc(C(F)(F)F)cc23)CC[C@@H]1C(=O)N1CCn2c(nnc2C(F)(F)F)C1 (single isomer, unassigned) [Example 119a] |
